From a compilation of properties of binary mixtures (doi:10.1016/j.molliq.2017.03.036)

Test: xn = mol fraction of the nth substance listed
Settings: 101 kPa

CN(CCO)CCO + CC(=O)[O-].CC[n+]1ccn(C)c1
x2 = 0
Settings | electrical conductivity [S/m] | viscosity [mPa·s]
288.15 K | 0.0002 | 137.6
293.15 K | 0.0003 | 101.2
298.15 K | 0.0004 | 74.8
303.15 K | 0.0005 | 57.2
308.15 K | 0.0007 | 43
313.15 K | 0.0009 | 34.1
318.15 K | 0.0011 | 26.1
323.15 K | 0.0014 | 21.6
333.15 K | 0.0024 | 14.19
348.15 K | 0.0046 | 8.13
353.15 K | 0.0056 | 7.09

CC(=O)[O-].CC[n+]1ccn(C)c1 + CN(CCO)CCO
Settings | electrical conductivity [S/m] | viscosity [mPa·s]
288.15 K, x1 = 0.1002 | 0.01 | 144.1
288.15 K, x1 = 0.2997 | 0.048 | 155.8
288.15 K, x1 = 0.4001 | 0.059 | 163
288.15 K, x1 = 0.5998 | 0.075 | 193
288.15 K, x1 = 0.7003 | 0.087 | 203
288.15 K, x1 = 0.7998 | 0.103 | 217
288.15 K, x1 = 0.8999 | 0.124 | 236
288.15 K, x1 = 1 | 0.151 | 288
293.15 K, x1 = 0.1002 | 0.014 | 107.2
293.15 K, x1 = 0.2002 | 0.044 | 112.8
293.15 K, x1 = 0.2997 | 0.059 | 118.3
293.15 K, x1 = 0.4995 | 0.085 | 128.7
293.15 K, x1 = 0.5998 | 0.099 | 140.6
293.15 K, x1 = 0.7003 | 0.116 | 147.3
293.15 K, x1 = 0.7998 | 0.138 | 154.8
293.15 K, x1 = 0.8999 | 0.169 | 170
293.15 K, x1 = 1 | 0.201 | 197
298.15 K, x1 = 0.1002 | 0.019 | 80.3
298.15 K, x1 = 0.2002 | 0.054 | 85.1
298.15 K, x1 = 0.2997 | 0.073 | 88.7
298.15 K, x1 = 0.4001 | 0.089 | 93.2
298.15 K, x1 = 0.5998 | 0.13 | 106.5
298.15 K, x1 = 0.7003 | 0.152 | 110.8
298.15 K, x1 = 0.7998 | 0.184 | 114.1
298.15 K, x1 = 0.8999 | 0.227 | 127.2
298.15 K, x1 = 1 | 0.278 | 140
303.15 K, x1 = 0.1002 | 0.025 | 60.8
303.15 K, x1 = 0.2997 | 0.091 | 68.6
303.15 K, x1 = 0.4001 | 0.115 | 71.9
303.15 K, x1 = 0.4995 | 0.148 | 75.7
303.15 K, x1 = 0.7003 | 0.204 | 83.8
303.15 K, x1 = 0.7998 | 0.242 | 86.6
303.15 K, x1 = 0.8999 | 0.295 | 95.8
308.15 K, x1 = 0.1002 | 0.032 | 47.2
308.15 K, x1 = 0.2002 | 0.079 | 50.7
308.15 K, x1 = 0.2997 | 0.11 | 53.3
308.15 K, x1 = 0.4001 | 0.143 | 56.1
308.15 K, x1 = 0.4995 | 0.185 | 59.9
308.15 K, x1 = 0.5998 | 0.217 | 64.3
308.15 K, x1 = 0.7003 | 0.271 | 65.4
308.15 K, x1 = 0.7998 | 0.315 | 66.8
308.15 K, x1 = 1 | 0.461 | 78.3
313.15 K, x1 = 0.1002 | 0.04 | 37.2
313.15 K, x1 = 0.2002 | 0.093 | 40.3
313.15 K, x1 = 0.2997 | 0.134 | 42.9
313.15 K, x1 = 0.4001 | 0.175 | 45
313.15 K, x1 = 0.5998 | 0.273 | 51.7
313.15 K, x1 = 0.8999 | 0.486 | 58.1
313.15 K, x1 = 1 | 0.585 | 60.4
318.15 K, x1 = 0.2002 | 0.112 | 32
318.15 K, x1 = 0.2997 | 0.163 | 34.3
318.15 K, x1 = 0.4001 | 0.215 | 36.4
318.15 K, x1 = 0.4995 | 0.28 | 39.7
318.15 K, x1 = 0.5998 | 0.342 | 41.3
318.15 K, x1 = 0.7998 | 0.505 | 43.7
323.15 K, x1 = 0.2002 | 0.132 | 26.1
323.15 K, x1 = 0.2997 | 0.194 | 27.3
323.15 K, x1 = 0.4001 | 0.259 | 29.8
323.15 K, x1 = 0.4995 | 0.344 | 32.7
323.15 K, x1 = 0.5998 | 0.423 | 33.9
323.15 K, x1 = 0.7003 | 0.519 | 35.1
323.15 K, x1 = 0.7998 | 0.624 | 35.9
323.15 K, x1 = 0.8999 | 0.736 | 38.3
328.15 K, x1 = 0.2002 | 0.157 | 21.4
328.15 K, x1 = 0.2997 | 0.23 | 22.8
328.15 K, x1 = 0.4001 | 0.311 | 25
328.15 K, x1 = 0.7003 | 0.628 | 28.7
328.15 K, x1 = 0.7998 | 0.763 | 29.4
328.15 K, x1 = 0.8999 | 0.886 | 30.8
328.15 K, x1 = 1 | 1.06 | 31.2
333.15 K, x1 = 0.1002 | 0.09 | 15.76
333.15 K, x1 = 0.2002 | 0.184 | 17.9
333.15 K, x1 = 0.2997 | 0.273 | 19.4
333.15 K, x1 = 0.4001 | 0.371 | 20.6
333.15 K, x1 = 0.4995 | 0.495 | 22
333.15 K, x1 = 0.5998 | 0.628 | 23
333.15 K, x1 = 0.7003 | 0.755 | 23.8
333.15 K, x1 = 0.7998 | 0.909 | 24.5
338.15 K, x1 = 0.1002 | 0.108 | 13
338.15 K, x1 = 0.2002 | 0.215 | 14.46
338.15 K, x1 = 0.2997 | 0.322 | 16.9
338.15 K, x1 = 0.4001 | 0.437 | 17.3
338.15 K, x1 = 0.4995 | 0.583 | 18.7
338.15 K, x1 = 0.5998 | 0.742 | 19.3
338.15 K, x1 = 0.7003 | 0.896 | 19.9
338.15 K, x1 = 0.7998 | 1.08 | 20.5
338.15 K, x1 = 0.8999 | 1.25 | 21.1
338.15 K, x1 = 1 | 1.47 | 21.8
343.15 K, x1 = 0.1002 | 0.126 | 10.85
343.15 K, x1 = 0.2002 | 0.249 | 12.19
343.15 K, x1 = 0.2997 | 0.377 | 14.5
343.15 K, x1 = 0.4995 | 0.684 | 16.1
343.15 K, x1 = 0.5998 | 0.882 | 16.6
343.15 K, x1 = 0.7003 | 1.05 | 17.3
343.15 K, x1 = 0.7998 | 1.26 | 17.7
343.15 K, x1 = 0.8999 | 1.46 | 18.2
343.15 K, x1 = 1 | 1.71 | 18.8
348.15 K, x1 = 0.1002 | 0.148 | 9.17
348.15 K, x1 = 0.2002 | 0.287 | 10.36
348.15 K, x1 = 0.2997 | 0.441 | 12.49
348.15 K, x1 = 0.4001 | 0.605 | 12.74
348.15 K, x1 = 0.5998 | 1.04 | 14.22
348.15 K, x1 = 0.7003 | 1.22 | 14.67
348.15 K, x1 = 0.7998 | 1.46 | 15.22
348.15 K, x1 = 0.8999 | 1.68 | 15.69
348.15 K, x1 = 1 | 1.96 | 16.01
353.15 K, x1 = 0.1002 | 0.172 | 8.38
353.15 K, x1 = 0.2997 | 0.511 | 10.86
353.15 K, x1 = 0.4001 | 0.7 | 11.03
353.15 K, x1 = 0.4995 | 0.919 | 12.24
353.15 K, x1 = 0.7003 | 1.42 | 13.06
353.15 K, x1 = 0.8999 | 1.93 | 13.8
353.15 K, x1 = 1 | 2.22 | 14.07
